Earlier results as cited in patent US20080274189A1, “Organic Compounds Comprising a Glycopyrr Onium Salt” (priority 2005, published 2008).

Conditions: aerosol formulation, single administration of a metered dose, asthma

## C[N+]1(C)CCC(OC(=O)C(O)(c2ccccc2)C2CCCC2)C1.[Br-] (racemic) [glycopyrrolate, 3-[(cyclopentyl-hydroxyphenylacetyl)oxy]-1,1-dimethylpyrrolidinium bromide]
  duration of bronchodilation: up to 12 hours
